Consider 20 compounds from patent publication US20240101589A1, “INHIBITORS OF METTL3” (Strom Therapeutics Limited, priority 2020, published 2024).

SMILES strings stand for the structures.

Sequence of METTL3/14 (Q86U44 whole entry): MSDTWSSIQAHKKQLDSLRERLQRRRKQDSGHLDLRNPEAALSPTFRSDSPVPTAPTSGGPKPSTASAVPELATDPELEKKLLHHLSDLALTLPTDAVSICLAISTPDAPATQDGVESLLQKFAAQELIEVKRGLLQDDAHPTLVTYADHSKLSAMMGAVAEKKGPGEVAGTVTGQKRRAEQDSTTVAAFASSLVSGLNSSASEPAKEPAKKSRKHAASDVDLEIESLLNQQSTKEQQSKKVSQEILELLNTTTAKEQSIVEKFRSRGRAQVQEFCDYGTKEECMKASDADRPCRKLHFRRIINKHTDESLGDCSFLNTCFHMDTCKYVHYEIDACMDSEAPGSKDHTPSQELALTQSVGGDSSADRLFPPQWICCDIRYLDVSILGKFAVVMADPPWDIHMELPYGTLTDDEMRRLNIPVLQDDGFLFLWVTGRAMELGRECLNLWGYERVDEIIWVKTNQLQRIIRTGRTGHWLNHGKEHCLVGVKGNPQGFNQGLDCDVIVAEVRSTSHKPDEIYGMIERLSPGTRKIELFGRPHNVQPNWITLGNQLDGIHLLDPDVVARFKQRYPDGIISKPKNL
Sequence of METTL3/14 (Q9HCE5 whole entry partner): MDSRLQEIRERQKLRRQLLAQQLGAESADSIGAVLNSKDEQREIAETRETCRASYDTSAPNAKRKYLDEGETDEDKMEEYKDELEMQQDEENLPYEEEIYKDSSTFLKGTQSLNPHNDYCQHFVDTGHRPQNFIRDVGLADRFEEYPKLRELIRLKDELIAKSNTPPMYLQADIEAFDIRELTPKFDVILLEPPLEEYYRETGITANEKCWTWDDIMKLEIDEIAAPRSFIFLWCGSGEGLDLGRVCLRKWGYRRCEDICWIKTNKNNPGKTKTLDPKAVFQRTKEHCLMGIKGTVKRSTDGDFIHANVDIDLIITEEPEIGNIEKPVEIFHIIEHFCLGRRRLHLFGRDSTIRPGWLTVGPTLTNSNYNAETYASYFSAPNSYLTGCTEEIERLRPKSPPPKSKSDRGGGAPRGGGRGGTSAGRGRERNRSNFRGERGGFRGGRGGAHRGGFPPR

For the first test, the target named is METTL3/14 (Homo sapiens (Human), UniProt Q86U44). Nature of the test: METTL3/14 methyltransferase assay (RapidFire mass spectrometry, RFMS). It counts as biochemical. To be noted: 5 nM METTL3/14, 0.2 μM RNA substrate, 0.5 μM SAM, 60 minutes at room temperature. The procedure:
The enzymatic assay was established to determine IC50 values for inhibition of RNA methyltransferase activity. The enzyme used was full-length his-tagged METTL3 co-expressed with full length FLAG-tagged METTL14 in a baculovirus expression system. Enzymatic reactions were performed at room temperature in 384-well plates using a final reaction volume of 20 μL containing 20 mM TrisCl pH 7.6, 1 mM DTT, 0.01% Tween-20. 5 nM final concentration of METTL3/14 was pre-incubated with various compound concentrations for 10 minutes, followed by addition of 0.2 μM final concentration synthetic RNA substrate (5′P-[…]-3′) and 0.5 μM final concentration S-adenosyl-methionine (SAM). The reaction was incubated for a further 60 minutes at room temperature, and then quenched by the addition of 40 μL 7.5% TCA with two internal product standards (D4-SAH and 13C10-SAH). After termination, plates were sealed, centrifuged and stored at 4° C. until analysis.
RNA methyltransferase activity was measured label free using the RapidFire™ mass spectrometry (RF/MS) platform. Stopped and stable assay plates were analyzed on the Agilent RF300 integrated autosampler/solid-phase extraction (SPE) system coupled to an ABSciex 4000 mass spectrometer for the generation of the product S-adenosyl homocysteine (SAH) and normalized to the ratio of signal of the two internal product standards, respectively. Solvent A was water containing 0.1% (v/v) TCA. Solvent B was acetonitrile/0.1% ammonium acetate (8:2, v/v). More specifically, plates were centrifuged at 4350 rpm for 10 min, samples were aspirated under vacuum for 600 ms, then loaded onto a C18 solid-phase extraction cartridge and washed for 3 s with solvent A at a flow rate of 1.5 mL/min. Retained product and internal standards were eluted with solvent B at a flow rate of 1 mL/min for 3 s and finally the cartridge was re-equilibrated with solvent A for 500 ms. The mass transition for the product (SAH) was 384.9/135.9 Da. Transitions of the two internal product standards (IS1: D4-SAH and IS2: 13C10-SAH) were 389.1/135.8 Da and 395.0/134.2 Da, respectively. Ratios of SAH/IS1 and SAH/IS2 were used for normalization of matrix effects. IC50 values were calculated based on dilution series of individual compounds. Potency of a compound was measured at varied inhibitor concentrations and normalized to control wells without RNA substrate and without inhibition (DMSO only).
For the compound `Nc1ncnc2c1c(Br)cn2[C@@H]1O[C@H](/C=C/C2CNC2)[C@@H](O)[C@H]1O` [Example 13, (2R,3R,4S,5R)-2-{4-amino-5-bromo-7H-pyrrolo[2,3-d]pyrimidin-7-yl}-5-[(1E)-2-(azetidin-3-yl)ethenyl]oxolane-3,4-diol], half-maximal inhibition (IC50) was put at 0.46 µM.
Same read-out and setting: under `Nc1ncnc2c1c(Br)cn2[C@@H]1O[C@H](/C=C/C2CCCNC2)[C@@H](O)[C@H]1O` (stereo partly drawn) [Example 15, (2R,3R,4S,5R)-2-{4-amino-5-bromo-7H-pyrrolo[2,3-d]pyrimidin-7-yl}-5-[(1E)-2-(piperidin-3-yl)ethenyl]oxolane-3,4-diol] stands 0.351 µM.
On the same count and under the same terms, then `Nc1ncnc2c1c(Br)cn2[C@@H]1O[C@H](/C=C/C2CCNC2)[C@@H](O)[C@H]1O` (stereo partly drawn) [Example 16, (2R,3R,4S,5R)-2-{4-amino-5-bromo-7H-pyrrolo[2,3-d]pyrimidin-7-yl}-5-[(1E)-2-(pyrrolidin-3-yl)ethenyl]oxolane-3,4-diol], with 0.453 µM; and `Nc1ncnc2c1c(Br)cn2[C@@H]1O[C@H](/C=C/CCCNCc2ccccc2)[C@@H](O)[C@H]1O` [Example 1, (2R,3R,4S,5R)-2-(4-amino-5-bromo-7H-pyrrolo[2,3-d]pyrimidin-7-yl)-5-((E)-5-(benzylamino)pent-1-en-1-yl)tetrahydrofuran-3,4-diol], with 0.0448 µM; and `Nc1ncnc2c1c(Br)cn2[C@@H]1O[C@H](/C=C/C2CC(N)C2)[C@@H](O)[C@H]1O` (stereo partly drawn) [Example 17, (2R,3R,4S,5R)-2-{4-amino-5-bromo-7H-pyrrolo[2,3-d]pyrimidin-7-yl}-5-[(1E)-2-(3-aminocyclobutyl)ethenyl]oxolane-3,4-diol], with 1.31 µM.
Still for that read-out and setting: under `Nc1ncnc2c1c(Br)cn2[C@@H]1O[C@H](/C=C/CCCN2CCOCC2)[C@@H](O)[C@H]1O` [Example 25, (2R,3R,4S,5R)-2-{4-amino-5-bromo-7H-pyrrolo[2,3-d]pyrimidin-7-yl}-5-[(1E)-5-(morpholin-4-yl)pent-1-en-1-yl]oxolane-3,4-diol] stands 1.09 µM.
Consider `Nc1ncnc2c1c(Br)cn2[C@@H]1O[C@H](/C=C/CCCN2CCC(F)CC2)[C@@H](O)[C@H]1O` [Example 24, (2R,3R,4S,5R)-2-{4-amino-5-bromo-7H-pyrrolo[2,3-d]pyrimidin-7-yl}-5-[(1E)-5-(4-fluoropiperidin-1-yl)pent-1-en-1-yl]oxolane-3,4-diol], for which the IC50 (as a rule, the concentration at which inhibition is half-maximal) worked out at 0.231 µM. Against the preceding compound, the IC50 is about 4.7-fold lower.
For `Nc1ncnc2c1c(Br)cn2[C@@H]1O[C@H](/C=C/CCNCc2ccccc2)[C@@H](O)[C@H]1O` [Example 3, (2R,3R,4S,5R)-2-{4-amino-5-bromo-7H-pyrrolo[2,3-d]pyrimidin-7-yl}-5-[(1E)-4-(benzylamino)but-1-en-1-yl]oxolane-3,4-diol], the midpoint of inhibition, the IC50, lay at 0.317 µM.
Still for that read-out and setting: under `Nc1ncnc2c1c(Br)cn2[C@@H]1C[C@H](c2cccc(C(=O)NCC34CC(F)(C3)C4)c2)[C@@H](O)[C@H]1O` [Example 40, 3-[(1R,2R,3S,4R)-4-{4-amino-5-bromo-7H-pyrrolo[2,3-d]pyrimidin-7-yl}-2,3-dihydroxycyclopentyl]-N-({3-fluorobicyclo[1.1.1]pentan-1-yl}methyl)benzamide] stands 7.93 µM.
Same read-out and setting: under `NCCC/C=C/[C@H]1O[C@@H](n2cc(Br)c3c(N)ncnc32)[C@H](O)[C@@H]1O` [Example 8, (2R,3R,4S,5R)-2-{4-amino-5-bromo-7H-pyrrolo[2,3-d]pyrimidin-7-yl}-5-[(1E)-5-aminopent-1-en-1-yl]oxolane-3,4-diol] stands 0.505 µM; under `NCC/C=C/[C@H]1O[C@@H](n2cc(Br)c3c(N)ncnc32)[C@H](O)[C@@H]1O` [Example 7, (2R,3R,4S,5R)-2-{4-amino-5-bromo-7H-pyrrolo[2,3-d]pyrimidin-7-yl}-5-[(1E)-4-aminobut-1-en-1-yl]oxolane-3,4-diol], 0.568 µM.
The same measure, in the same setting: under `Nc1ncnc2c1c(Br)cn2[C@@H]1O[C@H](/C=C/CC2CNC2)[C@@H](O)[C@H]1O` [Example 19, (2R,3R,4S,5R)-2-{4-amino-5-bromo-7H-pyrrolo[2,3-d]pyrimidin-7-yl}-5-[(1E)-3-(azetidin-3-yl)prop-1-en-1-yl]oxolane-3,4-diol] stands 0.522 µM; under `Nc1ncnc2c1c(Br)cn2[C@@H]1O[C@H](/C=C/CCCN2CCC(F)(F)CC2)[C@@H](O)[C@H]1O` [Example 23, (2R,3R,4S,5R)-2-{4-amino-5-bromo-7H-pyrrolo[2,3-d]pyrimidin-7-yl}-5-[(1E)-5-(4,4-difluoropiperidin-1-yl)pent-1-en-1-yl]oxolane-3,4-diol], 0.0635 µM; under `Nc1ncnc2c1c(Br)cn2[C@@H]1O[C@H](/C=C/C2CCNCC2)[C@@H](O)[C@H]1O` [Example 14, (2R,3R,4S,5R)-2-{4-amino-5-bromo-7H-pyrrolo[2,3-d]pyrimidin-7-yl}-5-[(1E)-2-(piperidin-4-yl)ethenyl]oxolane-3,4-diol], 0.413 µM.
Regarding `Nc1ncnc2c1c(Br)cn2[C@@H]1O[C@H](/C=C/CCCNCC23CC(F)(C2)C3)[C@@H](O)[C@H]1F` [Example 41, (2R,3R,4R,5R)-5-{4-amino-5-bromo-7H-pyrrolo[2,3-d]pyrimidin-7-yl}-4-fluoro-2-[(1E)-5-[({3-fluorobicyclo[1.1.1]pentan-1-yl}methyl)amino]pent-1-en-1-yl]oxolan-3-ol], half-maximal inhibition (IC50) required 0.06 µM. This IC50 is about 6.9-fold lower than that of the compound before.
`Nc1ncnc2c1c(Br)cn2[C@@H]1O[C@H](/C=C/CCCNCC23CC(F)(C2)C3)[C@H](F)[C@H]1O` [Example 28, (2R,3S,4R,5R)-2-{4-amino-5-bromo-7H-pyrrolo[2,3-d]pyrimidin-7-yl}-4-fluoro-5-[(1E)-5-[({3-fluorobicyclo[1.1.1]pentan-1-yl}methyl)amino]pent-1-en-1-yl]oxolan-3-ol]: 0.0197 µM corresponded to half-maximal inhibition (IC50).
With `Nc1ncnc2c1c(Br)cn2[C@@H]1O[C@H](/C=C/CCCN2CCCC(F)C2)[C@@H](O)[C@H]1O` (stereo partly drawn) [Example 26, (2R,3R,4S,5R)-2-{4-amino-5-bromo-7H-pyrrolo[2,3-d]pyrimidin-7-yl}-5-[(1E)-5-(3-fluoropiperidin-1-yl)pent-1-en-1-yl]oxolane-3,4-diol], it took 0.351 µM to reach half-maximal inhibition (IC50). Compared with the last compound, the IC50 is about 18-fold higher.
`Nc1ncnc2c1c(Br)cn2[C@@H]1O[C@H](/C=C/C2COC2)[C@@H](O)[C@H]1O` [Example 18, (2R,3R,4S,5R)-2-{4-amino-5-bromo-7H-pyrrolo[2,3-d]pyrimidin-7-yl}-5-[(1E)-2-(oxetan-3-yl)ethenyl]oxolane-3,4-diol]: the midpoint of inhibition, the IC50, lay at 2.93 µM. This IC50 lies about 8.3-fold higher than the previous one.
With `Nc1ncnc2c1c(Br)cn2[C@@H]1O[C@H](/C=C/CCCNCC23CC(F)(C2)C3)C[C@H]1O` [Example 27, (2R,3R,5S)-2-{4-amino-5-bromo-7H-pyrrolo[2,3-d]pyrimidin-7-yl}-5-[(1E)-5-[({3-fluorobicyclo[1.1.1]pentan-1-yl}methyl)amino]pent-1-en-1-yl]oxolan-3-ol], the IC50 stood at 0.0096 µM.

The next test has as its system KASUMI-1 cells. Nature of the test: Kasumi cell proliferation CTG. It counts as cell-based. To be noted: Homo sapiens, Kasumi 1, 120 h, treated for 120 hours, CellTiter-Glo. The protocol: Cell culture: KASUMI-1 cells (ACC20, Leibniz-Institut DSMZ Deutsche Sammlung von Mikroorganismen und Zellkulturen GmbH) were grown in RPMI 1640 (31870-025, Gibco) supplemented with 20% fetal bovine serum (F1524, Gibco), 1 mM sodium pyruvate (11360-039, Gibco) and 2 mM Glutamax (35050-038, Gibco) in a 5% CO2 humidified incubator at 37° C.
Cell treatment and cell growth assessment: KASUMI-1 cells were seeded in ultra-low attachment 384-well culture plate (MS-9384WZ, SBio) at a final concentration of 250 000 cells/ml (35 μL/well) and treated for 120 hours with compounds inhibiting the METTL3/14 activity (10 serial semi-log dilutions, 30 μM as top concentration). Upon treatment, Kasumi1 cells were incubated for 10 min at RT with the CellTiter-Glo reagent (G7571, Promega). Measurement of the luminescence signal was performed on a microplate reader (Ensight, PerkinElmer).
Background: Cellular ATP, detected with luciferase, serves as a proxy for viable cell number.
`Nc1ncnc2c1c(Br)cn2[C@@H]1O[C@H](/C=C/CCCNCC2CC(F)(F)C2)[C@@H](O)[C@H]1O` [Example 4, (2R,3R,4S,5R)-2-{4-amino-5-bromo-7H-pyrrolo[2,3-d]pyrimidin-7-yl}-5-[(1E)-5-{[(3,3-difluorocyclobutyl)methyl]amino}pent-1-en-1-yl]oxolane-3,4-diol] showed a concentration for half-maximal inhibition (IC50) of 4.8 µM.
The same measure, in the same setting: then `Nc1ncnc2c1c(Br)cn2[C@@H]1O[C@H](/C=C/C2CC(N)C2)[C@@H](O)[C@H]1O` (stereo partly drawn) [Example 17, (2R,3R,4S,5R)-2-{4-amino-5-bromo-7H-pyrrolo[2,3-d]pyrimidin-7-yl}-5-[(1E)-2-(3-aminocyclobutyl)ethenyl]oxolane-3,4-diol], with 12.4 µM.

The same test, now with this note: treated for 120 hours, CellTiter-Glo.
Turning to `Nc1ncnc2c1c(Br)cn2[C@@H]1O[C@H](/C=C/CCCNCc2ccccc2)[C@@H](O)[C@H]1O` [Example 1, (2R,3R,4S,5R)-2-(4-amino-5-bromo-7H-pyrrolo[2,3-d]pyrimidin-7-yl)-5-((E)-5-(benzylamino)pent-1-en-1-yl)tetrahydrofuran-3,4-diol], the IC50 was found to be 4.9 µM.
